Measurements published in patent US20230107770A1, “METHOD OF ENHANCING IMMUNOTHERAPY USING ER STRESS PATHWAY INHIBITORS” (H. LEE MOFFITT CANCER CENTER AND RESEARCH INSTITUTE, INC., priority 2020, published 2023).

Key:
[1] = Blood glucose and pancreatic islets in B16-bearing mice; assay type: in vivo
Description: Hematoxylin and Eosin (H&E) stained slides were scanned in an Aperio AT2 whole slide scanner (Leica Biosystems Inc.) equipped with a 20×0.7NA objective lens Images were created at 0.5 micron per pixel resolution and imported into Definiens Tissue Studio software v4.7 (Definiens AG) for analysis. Islets were found using a semi-automated segmentation process. First an automatic segmentation was applied to the image to create contour lines around objects within the image. Objects that contained islets were classified as such and remaining objects were classified as non-islet tissue. Next, adjacent objects of the same classification were merged together to clean up the segmentation. Segmented images were analyzed to provide the total area of islets Immunofluorescence for mouse insulin in pancreas tissue sections was performed as we described (Sultan et al., 2017). Labeled samples were scanned with a Zeiss Imager Z2 Upright FL microscope with a 10× objective lens using the tile scan function. Images were created at a
0.65 micron per pixel resolution and imported into the Definiens Tissue Studio software v4.7 (Definiens AG) for islet detection and analysis. Islets were detected using a semi-automated segmentation process. First, an automatic segmentation was applied to the image to detect the tissue. Then, the software was trained to detect islet vs. non-islet tissue within the image. In order to remove false detected islets caused by background staining, detected islets larger than 150,000 square microns and less than 600 square microns were reclassified to non-islet tissue. Segmented images were then analyzed to provide the fluorescent intensity of islets and total tissue area.

[2] = system: FSHR+-ID8-Defb29/Vegfa ovarian tumors; test: ER stress-targeting therapy combined with FSH-CER T cells in ovarian tumor-bearing mice; assay type: in vivo; conditions: MKC8866 i.p. 300 mg/kg or AMG-44 i.p. 12 mg/kg daily for one week; FSH-CER T cells days 7 and 14
Description: The role of the PERK-Chop in the expansion of tumor TRM cells using conditional T cell Chop-null mice was evaluated. In agreement with the inhibitory effect of Chop in TRM development, higher frequency of TRM cells was detected in tumors from T cell-Chop^KO mice compared to controls (FIG. 23A). Next, we tested the effect of the inhibition of PERK (AMG-44) and IRE 1α (MKC8866) during the expansion of IL-2-supplemented human FSH-CER T cells. […] Also, we evaluated the therapeutic effect of the combination of ER stress-targeting therapy and FSH-CER. […]
Activation of the UPR in cancer cells mediates adaptation processes in the TME, whereas UPR priming in tumor-myeloid cells promotes their immunoregulatory activity. […] As main readouts of therapeutic efficacy, we will monitor tumor burden, overall survival, and tumor CER-T cell infiltration, persistence, and cytotoxic capacity (Exp. C.2.1.1). […] Additionally, we will sort DCs and MDSC from tumor sites and lymphoid organs to quantify the expression of ER stress gene markers, their ability to impair T cell proliferation and IFNγ production, and the levels of the UPR-related immunoinhibitory factors IL-6, PGE2, Cox-2, mPGES-1, and Arginase I. All required methods are established by our groups. […]

tumor-MDSC = test: Ex vivo suppression assay: tumor-MDSC co-cultured with primed CFSE-labeled T cells; assay type: cell-based, mice; conditions: tumor-MDSC (1:1/4) from B16-bearing mice; AMG-44 12 mg/kg
Description: CD3^+ T cells were enriched using mouse or human T cell negative selection kits (MagniSort, Invitrogen) from the spleen and lymph nodes of C57BL/6 mice; or from purchased human buffy-coat units (One-Blood, Tampa, Fla.). Purity ranged between 95% and 99% as tested by flow cytometry. For antigen-specific priming studies, CD8^+ T cells were enriched using negative selection kits from the spleens of OT-I mice previously activated with OVA257-264 (SIINFEKL) for 48 hours. Tumor-MDSC were isolated from cellular suspensions of digested tumors followed by positive selection (MojoSort Streptavidin Nanobeads, Biolegend) using anti-Gr1 (Clone RB6-8C5, eBioscience) or anti-CD11b-biotinylated antibodies (Clone M1/70, StemCell Technologies, Vancouver). Also, M-MDSC (CD11b^+Gr1^+Ly6G^lowLy6C^high), PMN-MDSC (CD11b^+Gr1^+Ly6G^+Ly6C^low), macrophages (CD11b^+Gr1^negF4/80^+CD11c^neg), and myeloid DCs (CD11b^+Gr1^negF4/80^negCD11c^+) were sorted from tumors in a FACSAriaII (BD Biosciences).
Murine BM-MDSC (ratio 1:1/8) or tumor-MDSC (ratio 1:1/4) were co-cultured with negatively selected CD3^+ T cells in a 96 well plate bound α-CD3 and α-CD28 (1 μg/ml each, eBioscience) for 3 days. T cell proliferation was assessed with Carboxyfluorescein succinimidyl ester (CFSE) or Cell-trace violet (Invitrogen) dye dilution detected by flow cytometry. For human studies, MDSC were co-cultured with enriched CD3^+ T cells activated with soluble α-CD3 (1 μg/ml, clone OKT3) and α-CD28 (0.5 μg/ml, clone L293) for 3 days in a 96 well plate bound with goat anti-mouse IgG (10 μg/ml). Results are expressed as percentage of proliferating T cells, determined by the dilution of fluorescence compared with non-stimulated T cells.

human FSH-CER T cells = test: Expansion of IL-2-supplemented human FSH-CER T cells with ER stress inhibitors; assay type: cell-based; conditions: treatment for 5 days
Description: The role of the PERK-Chop in the expansion of tumor TRM cells using conditional T cell Chop-null mice was evaluated. In agreement with the inhibitory effect of Chop in TRM development, higher frequency of TRM cells was detected in tumors from T cell-Chop^KO mice compared to controls (FIG. 23A). Next, we tested the effect of the inhibition of PERK (AMG-44) and IRE 1α (MKC8866) during the expansion of IL-2-supplemented human FSH-CER T cells. […] Also, we evaluated the therapeutic effect of the combination of ER stress-targeting therapy and FSH-CER. Thus, mice bearing FSHR+-ID8-Defb29/Vegfa ovarian tumors for 7 days received daily treatments with MKC8866 (i.p., 300 mg/kg) or AMG-44 (i.p. 12 mg/kg) for one-week, and i.p. transfer of FSH-CER T cells at days 7 and 14 post-tumor challenge. […] We postulate that treatments for longer time periods with ER stress inhibitors will further potentiate the effect of FSH-CER T cells

Cc1ccc2cc(-c3c(C)ccc(C(=O)c4c(-c5ccccc5)n(C)n(-c5ccccc5)c4=O)c3N)ccc2n1 [AMG-44]
blood glucose levels ([1]; AMG-44 12 and 24 mg/kg): without alterations | insulin expression in the pancreatic islets ([1]; AMG-44 12 and 24 mg/kg): without alterations | size of the pancreatic islets ([1]; AMG-44 12 and 24 mg/kg): without alterations | glucose levels in the serum ([1]; B16-bearing mice treated for a week, GSK2606414 25 mg/kg or AMG-44 12 mg/kg, day 17): failed to show alterations in glucose levels | survival of hosts receiving FSH-CER T cells plus inhibitor [2]: Prolonged survival | immunoinhibitory activity of tumor-MDSC (tumor-MDSC): impaired the immunoinhibitory activity of tumor-MDSC | frequency of FSH-CER TRM cells (human FSH-CER T cells): Higher frequency of FSH-CER TRM cells
